Measurements taken from paper PMC11811690 (Angewandte Chemie (International Ed. in English), 2024).
≈ marks a conversion by molar mass, not a printed value. Where two headings read alike, the source gives them in different places.

Assays:
Test in all cases: microbe, parasite or virus in culture
[1] = tested on: M. tuberculosis H37Rv poly-g-GFP; assay type: cell-based; conditions: Mycobacterium tuberculosis, 336 h, read-out: MIC Mtb H37Rv-poly-g-GFP, turbidity read-out
[2] = tested on: M. tuberculosis H37Rv poly-g-GFP; assay type: cell-based; conditions: Mycobacterium tuberculosis, H37RV, 240 h, read-out: IC90 Mtb H37Rv-poly-g-GFP, fluorescence read-out
[3] = tested on: C. difficile 630; assay type: cell-based, Clostridioides difficile
[4] = Clostridioides difficile, C. difficile 630, anaerobic, overnight, growth suppressed to OD600 < 0.15, read-out: MIC C. difficile
[5] = concentration for 90 % inhibition of fluorescence as proxy for growth inhibition, 10 days, 37 °C

Compound | IC90 [2] | MIC [3, 4] | IC90 [2, 5] | also measured
CO[C@H]1/C=C/O[C@@]2(C)Oc3c(C)c(O)c4c(O)c(c(/C=N/N5CCN(C)CC5)c(O)c4c3C2=O)NC(=O)/C(C)=C\C=C\[C@H](C)[C@H](O)[C@@H](C)[C@@H](O)[C@@H](C)[C@H](OC(C)=O)[C@@H]1C [Rif, Rifampicin, reference compound] |  |  |  | MIC [1]: < 0.12 µg/mL
CC[C@H]1/C=C(\C)[C@@H](O)C/C=C/C=C(\CN2CCN(c3ccccc3)CC2)C(=O)O[C@H]([C@@H](C)O)C/C=C(C)/C=C(\C)[C@@H]1O[C@@H]1OC(C)(C)[C@@H](OC(=O)C(C)C)[C@H](O)[C@@H]1O [compound 2] | 16 µg/mL (≈ 19.8 µM) | > 32 µg/mL |  | 
CC[C@H]1/C=C(\C)[C@@H](O)C/C=C/C=C(\CN2CCN(c3ccncc3)CC2)C(=O)O[C@H]([C@@H](C)O)C/C=C(C)/C=C(\C)[C@@H]1O[C@@H]1OC(C)(C)[C@@H](OC(=O)C(C)C)[C@H](O)[C@@H]1O [compound 3] | 16 µg/mL (≈ 19.8 µM) |  |  | 
CC[C@H]1/C=C(\C)[C@@H](O)C/C=C/C=C(\CN2CCN(CCOc3ncccn3)CC2)C(=O)O[C@H]([C@@H](C)O)C/C=C(C)/C=C(\C)[C@@H]1O[C@@H]1OC(C)(C)[C@@H](OC(=O)C(C)C)[C@H](O)[C@@H]1O [compound 4] | > 64 µg/mL |  |  | 
CC[C@H]1/C=C(\C)[C@@H](O)C/C=C/C=C(\CN2CCN(Cc3ccc(F)cc3)CC2)C(=O)O[C@H]([C@@H](C)O)C/C=C(C)/C=C(\C)[C@@H]1O[C@@H]1OC(C)(C)[C@@H](OC(=O)C(C)C)[C@H](O)[C@@H]1O [compound 6] | 16 µg/mL (≈ 19 µM) | 16 µg/mL (≈ 19 µM) |  | 
CC[C@H]1/C=C(\C)[C@@H](O)C/C=C/C=C(\CN(C)Cc2nnc(-c3ccccc3)o2)C(=O)O[C@H]([C@@H](C)O)C/C=C(C)/C=C(\C)[C@@H]1O[C@@H]1OC(C)(C)[C@@H](OC(=O)C(C)C)[C@H](O)[C@@H]1O [compound 7] | 8 µg/mL (≈ 9.57 µM) | 16 µg/mL (≈ 19.1 µM) |  | MIC [1]: 8 µg/mL (≈ 9.57 µM)
CC[C@H]1/C=C(\C)[C@@H](O)C/C=C/C=C(\CNc2nc3ccccc3s2)C(=O)O[C@H]([C@@H](C)O)C/C=C(C)/C=C(\C)[C@@H]1O[C@@H]1OC(C)(C)[C@@H](OC(=O)C(C)C)[C@H](O)[C@@H]1O [compound 9] | 8 µg/mL (≈ 10 µM) | 2 µg/mL (≈ 2.51 µM) |  | MIC [1]: 4 to 8 µg/mL (≈ 5.02 to 10 µM)
CC[C@H]1/C=C(\C)[C@@H](O)C/C=C/C=C(\CNc2nc3c(s2)CCCC3)C(=O)O[C@H]([C@@H](C)O)C/C=C(C)/C=C(\C)[C@@H]1O[C@@H]1OC(C)(C)[C@@H](OC(=O)C(C)C)[C@H](O)[C@@H]1O [compound 11] | 16 µg/mL (≈ 20 µM) | 8 to 16 µg/mL (≈ 9.99 to 20 µM) |  | 
CC[C@H]1/C=C(\C)[C@@H](O)C/C=C/C=C(\CNc2nc3c(s2)CN(C)CC3)C(=O)O[C@H]([C@@H](C)O)C/C=C(C)/C=C(\C)[C@@H]1O[C@@H]1OC(C)(C)[C@@H](OC(=O)C(C)C)[C@H](O)[C@@H]1O [compound 12] | 32 µg/mL (≈ 39.2 µM) |  |  | 
CC[C@H]1/C=C(\C)[C@@H](O)C/C=C/C=C(\CNCc2nc3ccccc3s2)C(=O)O[C@H]([C@@H](C)O)C/C=C(C)/C=C(\C)[C@@H]1O[C@@H]1OC(C)(C)[C@@H](OC(=O)C(C)C)[C@H](O)[C@@H]1O [compound 14] | 16 µg/mL (≈ 19.7 µM) | > 32 µg/mL |  | 
CC[C@H]1/C=C(\C)[C@@H](O)C/C=C/C=C(\CNCc2cc(-c3ccccc3)no2)C(=O)O[C@H]([C@@H](C)O)C/C=C(C)/C=C(\C)[C@@H]1O[C@@H]1OC(C)(C)[C@@H](OC(=O)C(C)C)[C@H](O)[C@@H]1O [compound 15] | 16 µg/mL (≈ 19.5 µM) |  |  | 
CC[C@H]1/C=C(\C)[C@@H](O)C/C=C/C=C(\CNCc2nnc(-c3cc(Cl)cc(Cl)c3O)o2)C(=O)O[C@H]([C@@H](C)O)C/C=C(C)/C=C(\C)[C@@H]1O[C@@H]1OC(C)(C)[C@@H](OC(=O)C(C)C)[C@H](O)[C@@H]1O [compound 17] | 32 µg/mL (≈ 35.3 µM) | 2 µg/mL (≈ 2.21 µM) |  | 
CC[C@H]1/C=C(\C)[C@@H](O)C/C=C/C=C(\CNCc2nnc(C)o2)C(=O)O[C@H]([C@@H](C)O)C/C=C(C)/C=C(\C)[C@@H]1O[C@@H]1OC(C)(C)[C@@H](OC(=O)C(C)C)[C@H](O)[C@@H]1O [compound 19] | 16 µg/mL (≈ 21.1 µM) | 32 µg/mL (≈ 42.1 µM) |  | 
CC[C@H]1/C=C(\C)[C@@H](O)C/C=C/C=C(\CNCc2nnc(-c3cccc(O)c3O)o2)C(=O)O[C@H]([C@@H](C)O)C/C=C(C)/C=C(\C)[C@@H]1O[C@@H]1OC(C)(C)[C@@H](OC(=O)C(C)C)[C@H](O)[C@@H]1O [compound 22] | 4 µg/mL (≈ 4.68 µM) | 8 µg/mL (≈ 9.37 µM) |  | MIC [1]: 2 µg/mL (≈ 2.34 µM)
CC[C@H]1/C=C(\C)[C@@H](O)C/C=C/C=C(\CNCc2nnc(-c3ccc(C(F)(F)F)cc3)o2)C(=O)O[C@H]([C@@H](C)O)C/C=C(C)/C=C(\C)[C@@H]1O[C@@H]1OC(C)(C)[C@@H](OC(=O)C(C)C)[C@H](O)[C@@H]1O [compound 23] |  | 4 µg/mL (≈ 4.49 µM) | 8 µg/mL (≈ 8.99 µM) | MIC ([1]; 14 days, 37 °C, turbidity by eye): 2 µg/mL (≈ 2.25 µM)
CC[C@H]1/C=C(\C)[C@@H](O)C/C=C/C=C(\CNc2cccc(CNC(=O)CCC(=O)O)c2)C(=O)O[C@H]([C@@H](C)O)C/C=C(C)/C=C(\C)[C@@H]1O[C@@H]1OC(C)(C)[C@@H](OC(=O)C(C)C)[C@H](O)[C@@H]1O [compound 28] |  | 32 µg/mL (≈ 36.8 µM) | > 64 µg/mL | 

Compound | IC90 [2] | MIC [3, 4] | IC90 [2, 5] | also measured
CC[C@H]1/C=C(\C)[C@@H](O)C/C=C/C=C(\CNc2cccc(CNC(=O)Cc3nnn[nH]3)c2)C(=O)O[C@H]([C@@H](C)O)C/C=C(C)/C=C(\C)[C@@H]1O[C@@H]1OC(C)(C)[C@@H](OC(=O)C(C)C)[C@H](O)[C@@H]1O [compound 29] |  | > 32 µg/mL | 64 µg/mL (≈ 72.8 µM) | 
CC[C@H]1/C=C(\C)[C@@H](O)C/C=C/C=C(\CNc2cccc(CNC(=O)c3ccc(O)c(O)c3Cl)c2)C(=O)O[C@H]([C@@H](C)O)C/C=C(C)/C=C(\C)[C@@H]1O[C@@H]1OC(C)(C)[C@@H](OC(=O)C(C)C)[C@H](O)[C@@H]1O [compound 31] |  | 32 µg/mL (≈ 34.1 µM) | > 64 µg/mL | 
CC[C@H]1/C=C(\C)[C@@H](O)C/C=C/C=C(\CNc2nc(-c3cccc(O)c3)cs2)C(=O)O[C@H]([C@@H](C)O)C/C=C(C)/C=C(\C)[C@@H]1O[C@@H]1OC(C)(C)[C@@H](OC(=O)C(C)C)[C@H](O)[C@@H]1O [compound 32] |  | 8 µg/mL (≈ 9.53 µM) | 4 to 8 µg/mL (≈ 4.77 to 9.53 µM) | 
CC[C@H]1/C=C(\C)[C@@H](O)C/C=C/C=C(\CNc2nc(-c3cccc(OS(=O)(=O)F)c3)cs2)C(=O)O[C@H]([C@@H](C)O)C/C=C(C)/C=C(\C)[C@@H]1O[C@@H]1OC(C)(C)[C@@H](OC(=O)C(C)C)[C@H](O)[C@@H]1O [compound 33] |  |  | 8 to 16 µg/mL (≈ 8.69 to 17.4 µM) | MIC ([3]; Clostridioides difficile, 630, read-out: MIC C. difficile): > 32 µg/mL
CC[C@H]1/C=C(\C)[C@@H](O)C/C=C/C=C(\CNc2nc(-c3cccc(OS(=O)(=O)NC)c3)cs2)C(=O)O[C@H]([C@@H](C)O)C/C=C(C)/C=C(\C)[C@@H]1O[C@@H]1OC(C)(C)[C@@H](OC(=O)C(C)C)[C@H](O)[C@@H]1O [compound 34] |  | 1 µg/mL (≈ 1.07 µM) | 8 µg/mL (≈ 8.58 µM) | 
CC[C@H]1/C=C(\C)[C@@H](O)C/C=C/C=C(\CNc2nc(-c3cccc(OS(=O)(=O)N(C)C)c3)cs2)C(=O)O[C@H]([C@@H](C)O)C/C=C(C)/C=C(\C)[C@@H]1O[C@@H]1OC(C)(C)[C@@H](OC(=O)C(C)C)[C@H](O)[C@@H]1O [compound 35] |  | > 32 µg/mL | 8 µg/mL (≈ 8.45 µM) | 
CC[C@H]1/C=C(\C)[C@@H](O)C/C=C/C=C(\CNc2nc(-c3cccc(OS(=O)(=O)N4CCCC4)c3)cs2)C(=O)O[C@H]([C@@H](C)O)C/C=C(C)/C=C(\C)[C@@H]1O[C@@H]1OC(C)(C)[C@@H](OC(=O)C(C)C)[C@H](O)[C@@H]1O [compound 36] |  | > 32 µg/mL | 8 µg/mL (≈ 8.23 µM) | 
CC[C@H]1/C=C(\C)[C@@H](O)C/C=C/C=C(\CNc2nc(-c3cccc(OS(=O)(=O)NCCOC)c3)cs2)C(=O)O[C@H]([C@@H](C)O)C/C=C(C)/C=C(\C)[C@@H]1O[C@@H]1OC(C)(C)[C@@H](OC(=O)C(C)C)[C@H](O)[C@@H]1O [compound 37] |  | 2 µg/mL (≈ 2.05 µM) | 8 µg/mL (≈ 8.19 µM) | 
CC[C@H]1/C=C(\C)[C@@H](O)C/C=C/C=C(\CNc2nc(-c3cccc(OS(=O)(=O)Oc4ccccc4)c3)cs2)C(=O)O[C@H]([C@@H](C)O)C/C=C(C)/C=C(\C)[C@@H]1O[C@@H]1OC(C)(C)[C@@H](OC(=O)C(C)C)[C@H](O)[C@@H]1O [compound 38] |  | > 32 µg/mL | > 64 µg/mL | 
CC[C@H]1/C=C(\C)[C@@H](O)C/C=C/C=C(\CN2CCN(C)CC2)C(=O)O[C@H]([C@@H](C)O)C/C=C(C)/C=C(\C)[C@@H]1O[C@@H]1OC(C)(C)[C@@H](O)[C@H](OC(=O)c2ccoc2)[C@@H]1O [compound 41] |  |  | > 64 µg/mL | 
CC[C@H]1/C=C(\C)[C@@H](O)C/C=C/C=C(\CN2CCCCC2)C(=O)O[C@H]([C@@H](C)O)C/C=C(C)/C=C(\C)[C@@H]1O[C@@H]1OC(C)(C)[C@@H](O)[C@H](OC(=O)c2ccoc2)[C@@H]1O [compound 42] |  |  | > 64 µg/mL | 
CC[C@H]1/C=C(\C)[C@@H](O)C/C=C/C=C(\CN2CCN(CCCN(C)C)CC2)C(=O)O[C@H]([C@@H](C)O)C/C=C(C)/C=C(\C)[C@@H]1O[C@@H]1OC(C)(C)[C@@H](O)[C@H](OC(=O)c2ccoc2)[C@@H]1O [compound 43] |  |  | 32 to 64 µg/mL (≈ 38 to 76 µM) | 
CC[C@H]1/C=C(\C)[C@@H](O)C/C=C/C=C(\CN2CCN(C)CC2)C(=O)O[C@H]([C@@H](C)O)C/C=C(C)/C=C(\C)[C@@H]1O[C@@H]1OC(C)(C)[C@@H](O)[C@H](OC(=O)c2ccn(C)n2)[C@@H]1O [compound 44] |  |  | > 64 µg/mL | 
CC[C@H]1/C=C(\C)[C@@H](O)C/C=C/C=C(\CN2CCN(C)CC2)C(=O)O[C@H]([C@@H](C)O)C/C=C(C)/C=C(\C)[C@@H]1O[C@@H]1OC(C)(C)[C@@H](O)[C@H](OC(=O)c2ccnn2C)[C@@H]1O [compound 45] |  |  | > 64 µg/mL | 
CC[C@H]1/C=C(\C)[C@@H](O)C/C=C/C=C(\CN2CCN(C)CC2)C(=O)O[C@H]([C@@H](C)O)C/C=C(C)/C=C(\C)[C@@H]1O[C@@H]1OC(C)(C)[C@@H](O)[C@H](OC(=O)c2cnn(C)c2)[C@@H]1O [compound 46] |  |  | > 64 µg/mL | 
